Where “and” joins values, the source holds several entries; their conditions need not be identical. Equal values may be shown once. Read-outs that look alike come from different tables or passages of the source.
Biological target: Cdk9/cyclinT1 (Homo sapiens, UniProt P50750)
Assay: Cdk9/cyclinT1 Alpha Screen protocol
Type: biochemical
Set-up: Full length wild type Cdk9/cyclin T1 is purchased from Invitrogen; purchased Invitrogen PV4131
Details: individual determinations, read-out: CDK9_cyclinT1_AS2_IC50
Procedure: Cdk9/cyclinT1 Alpha Screen Protocol
Full length wild type Cdk9/cyclin T1 is purchased from Invitrogen, cat#PV4131. […] The cdk7tide peptide substrate, biotin-[…] -OH, is a custom synthesis purchased from the Tufts University Core Facility. The final concentration of cdk7tide peptide substrate is 200 nM. […] Phospho-Rpb1 CTD (ser2/5) substrate antibody is purchased from Cell Signaling Technology. The final concentration of antibody is 0.67 ug/ml. The Alpha Screen Protein A detection kit containing donor and acceptor beads is purchased from PerkinElmer Life Sciences. The final concentration of both donor and acceptor beads is 15 ug/ml. Alpha Screen is used for detection. […] The biotinylated-cdk7tide peptide substrate is bound to the streptavidin coated donor bead. The antibody is bound to the protein A coated acceptor bead. The antibody will bind to the phosphorylated form of the biotinylated-cdk7tide peptide substrate, bringing the donor and acceptor beads into close proximity. Laser irradiation of the donor bead at 680 nm generates a flow of short-lived singlet oxygen molecules. When the donor and acceptor beads are in close proximity, the reactive oxygen generated by the irradiation of the donor beads initiates a luminescence/fluorescence cascade in the acceptor beads. This process leads to a highly amplified signal with output in the 530-620 nm range. Assays are carried out in 50 mM Hepes, pH=7.5, 10 mM MgCl2, 0.1% Bovine Serum Albumin, 0.01% Tween-20, 1 mM Dithiothreitol, 2.5% Dimethyl Sulfoxide. Stop and detection steps are combined using 50 mM Hepes, pH=7.5, 18 mM EDTA, 0.1% Bovine Serum Albumin, 0.01% Tween-20.

Chain of Cdk9/cyclinT1 (P50750 whole entry): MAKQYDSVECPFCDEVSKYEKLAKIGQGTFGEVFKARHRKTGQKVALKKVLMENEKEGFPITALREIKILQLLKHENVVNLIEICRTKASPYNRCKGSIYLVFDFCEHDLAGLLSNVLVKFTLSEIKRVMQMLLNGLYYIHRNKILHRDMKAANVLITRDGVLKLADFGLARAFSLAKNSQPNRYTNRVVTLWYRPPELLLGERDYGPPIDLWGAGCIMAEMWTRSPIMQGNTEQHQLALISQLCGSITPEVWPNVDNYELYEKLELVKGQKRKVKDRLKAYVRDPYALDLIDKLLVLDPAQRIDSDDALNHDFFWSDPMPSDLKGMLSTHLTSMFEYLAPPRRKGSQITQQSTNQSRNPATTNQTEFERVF
Chain of Cdk9/cyclinT1 (O60563 whole entry partner): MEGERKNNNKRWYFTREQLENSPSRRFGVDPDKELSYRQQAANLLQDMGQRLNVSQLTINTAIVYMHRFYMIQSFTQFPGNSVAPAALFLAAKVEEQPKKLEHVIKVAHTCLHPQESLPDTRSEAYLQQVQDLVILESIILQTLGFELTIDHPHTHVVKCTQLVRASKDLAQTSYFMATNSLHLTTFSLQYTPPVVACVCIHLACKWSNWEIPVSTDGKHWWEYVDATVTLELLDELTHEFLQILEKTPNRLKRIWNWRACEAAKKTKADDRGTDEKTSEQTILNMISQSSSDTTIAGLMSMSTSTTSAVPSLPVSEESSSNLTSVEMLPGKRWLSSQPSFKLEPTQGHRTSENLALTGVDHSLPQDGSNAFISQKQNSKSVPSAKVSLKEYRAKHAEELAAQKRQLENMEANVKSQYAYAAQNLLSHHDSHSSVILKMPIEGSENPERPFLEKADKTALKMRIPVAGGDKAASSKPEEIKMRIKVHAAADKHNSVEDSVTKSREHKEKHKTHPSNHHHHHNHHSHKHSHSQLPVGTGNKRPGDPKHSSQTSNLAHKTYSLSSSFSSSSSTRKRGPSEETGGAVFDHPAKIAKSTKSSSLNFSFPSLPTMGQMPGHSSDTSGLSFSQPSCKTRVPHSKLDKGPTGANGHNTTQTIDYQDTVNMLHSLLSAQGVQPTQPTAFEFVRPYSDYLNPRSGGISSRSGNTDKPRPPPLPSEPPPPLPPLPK

## CC(C)(C)OCCN(CCOC(C)(C)C)[C@H]1CC[C@H](Nc2cc(-c3cccc(NCC4(C#N)CCOCC4)n3)c(Cl)cn2)CC1 [Compound 518]
TFA salt
  IC50: 8.57 nM

## N#CC1(CNc2cccc(-c3cc(N[C@H]4CC[C@@H](N5CCCOCC5)CC4)ncc3Cl)n2)CCOCC1 [Compound 538]
TFA salt
  IC50: 19.8 nM and 20.9 nM

## N#CC1(CNc2cccc(-c3cc(N[C@H]4CC[C@H](O)CC4)ncc3F)n2)CCOCC1 [Compound 576]
TFA salt
  IC50: 0.137 nM

## C[C@](O)(CN[C@H]1CC[C@H](Nc2cc(-c3cccc(NCC4(C#N)CCOCC4)n3)ccn2)CC1)C(F)(F)F [Compound 579]
TFA salt
  IC50: 0.902 nM

## N#CC1(CNc2cccc(-c3cc(N[C@H]4CC[C@@H](NCC5(O)CC5)CC4)ncc3Cl)n2)CCOCC1 [Compound 573]
Neutral species
  IC50: 6.44 nM

## C[C@H](O)[C@@H](C)N[C@H]1CC[C@H](Nc2cc(-c3cccc(NCC4(C#N)CCOCC4)n3)c(Cl)cn2)CC1 [Compound 543]
TFA salt
  IC50: 0.229 nM

## C[C@@](O)(CN[C@H]1CC[C@H](Nc2cc(-c3cncc(OCC4(C#N)CCOCC4)n3)c(Cl)cn2)CC1)C(F)(F)F [Compound 582]
Neutral species
  IC50: 1 nM

## N#CC1(COc2cncc(-c3cc(N[C@H]4CC[C@H](NCCC(F)(F)F)CC4)ncc3Cl)n2)CCOCC1 [Compound 562]
TFA salt
  IC50: 0.321 nM
Neutral species
  IC50: 0.549 nM

## N#CC1(CNc2cccc(-c3cc(N[C@H]4CC[C@H](NC5CC(F)(F)C5)CC4)ncc3Cl)n2)CCOCC1 [Compound 563]
Neutral species
  IC50: 0.416 nM

## N#CC1(CN[C@H]2CC[C@H](Nc3cc(-c4cncc(OCC5(C#N)CCOCC5)n4)c(Cl)cn3)CC2)CC1 [Compound 567]
Neutral species
  IC50: 0.754 nM and 0.279 nM

## CO[C@H]1CCN([C@H]2CC[C@@H](Nc3cc(-c4cccc(NCC5(C#N)CCOCC5)n4)c(F)cn3)CC2)C1 [Compound 517]
Neutral species
  IC50: 8.61 nM

## N#CC1(CNc2cccc(-c3cc(N[C@H]4CC[C@H](N[C@H]5CCCC[C@@H]5O)CC4)ncc3Cl)n2)CCOCC1 [Compound 588]
Neutral species
  IC50: < 1 nM

## N#CC1(CNc2cccc(-c3cc(N[C@H]4CC[C@H](NCC5(O)CC5)CC4)ncc3Cl)n2)CCOCC1 [Compound 560]
Neutral species
  IC50: 0.481 nM

## COC[C@@H](C)N[C@H]1CC[C@H](Nc2cc(-c3cccc(NCC4(C#N)CC4)n3)c(F)cn2)CC1 [Compound 551]
TFA salt
  IC50: 0.0753 nM and 0.28 nM and 0.0939 nM
Neutral species
  IC50: 0.299 nM and 0.303 nM and 0.654 nM

## C[C@H](CO)N[C@H]1CC[C@H](Nc2cc(-c3cccc(NCC4(C#N)CCOCC4)n3)c(Cl)cn2)CC1 [Compound 584]
Neutral species
  IC50: < 1 nM

## N#CC1(COc2cncc(-c3cc(N[C@H]4CC[C@H](NCCF)CC4)ncc3Cl)n2)CCOCC1 [Compound 550]
Neutral species
  IC50: 0.429 nM

## COC[C@H](C)N[C@H]1CC[C@H](Nc2cc(-c3cncc(OCC4(C#N)CCOCC4)n3)c(F)cn2)CC1 [Compound 589]
Neutral species
  IC50: 1 nM

## CC(O)(CN[C@H]1CC[C@H](Nc2cc(-c3cccc(NCC4(C#N)CCOCC4)n3)c(Cl)cn2)CC1)C(F)(F)F (some centres unmarked) [Compound 539]
Neutral species
  IC50: 0.537 nM and 0.466 nM

## COC[C@@H](C)NC[C@H]1CC[C@H](Nc2cc(-c3cccc(NCC4(C#N)CCOCC4)n3)c(Cl)cn2)CC1 [Compound 532]
TFA salt
  IC50: 0.703 nM

## COC[C@H](C)N[C@H]1CC[C@H](Nc2cc(-c3cccc(NCC4(C#N)CCOCC4)n3)c(F)cn2)CC1 [Compound 520]
TFA salt
  IC50: 0.458 nM and 0.413 nM

## N#CC1(CNc2cccc(-c3cc(N[C@H]4CC[C@H](CN5CCOCC5)CC4)ncc3Cl)n2)CCOCC1 [Compound 536]
TFA salt
  IC50: 1.87 nM
Neutral species
  IC50: 2.11 nM

## C[C@H](N[C@H]1CC[C@H](Nc2cc(-c3cccc(NCC4(C#N)CCOCC4)n3)c(Cl)cn2)CC1)[C@@H](C)O [Compound 531]
Neutral species
  IC50: 0.471 nM

## CC(C)(O)CN[C@H]1CC[C@H](Nc2cc(-c3cccc(NCC4(C#N)CCOCC4)n3)c(F)cn2)CC1 [Compound 522]
Neutral species
  IC50: 0.421 nM

## C[C@@H](O)CN[C@H]1CC[C@H](Nc2cc(-c3cccc(NCC4(C#N)CCOCC4)n3)c(Cl)cn2)CC1 [Compound 585]
Neutral species
  IC50: < 1 nM

## N#CC1(CNc2cccc(-c3cc(N[C@H]4CC[C@H](N5CC6(COC6)C5)CC4)ncc3Cl)n2)CCOCC1 [Compound 546]
Neutral species
  IC50: 1.42 nM and 1.08 nM and 1.12 nM

## [2H]C([2H])([2H])OC[C@@H](C)N[C@H]1CC[C@H](Nc2cc(-c3cncc(OCC4(C#N)CCOCC4)n3)c(Cl)cn2)CC1 [Compound 599]
Neutral species
  IC50: < 1 nM

## C[C@H](CO)N[C@H]1CC[C@@H](Nc2cc(-c3cncc(OCC4(C#N)CCOCC4)n3)c(F)cn2)CC1 [Compound 593]
Neutral species
  IC50: 25 nM

## N#CC1(CNc2cccc(-c3cc(N[C@H]4CC[C@@H](N5CC6(COC6)C5)CC4)ncc3Cl)n2)CCOCC1 [Compound 547]
Neutral species
  IC50: 6.15 nM

## COCCN(C1CC1)[C@H]1CC[C@H](Nc2cc(-c3cncc(OCC4(C#N)CCOCC4)n3)c(F)cn2)CC1 [Compound 555]
Neutral species
  IC50: 2.13 nM

## CO[C@H]1CCN([C@H]2CC[C@H](Nc3cc(-c4cccc(NCC5(C#N)CCOCC5)n4)c(Cl)cn3)CC2)C1 [Compound 514]
TFA salt
  IC50: 0.826 nM
Neutral species
  IC50: 0.553 nM

## CO[C@H]1CCN([C@H]2CC[C@H](Nc3cc(-c4cccc(NCC5(C#N)CCOCC5)n4)c(F)cn3)CC2)C1 [Compound 516]
Neutral species
  IC50: 0.835 nM

## N#CC1(COc2cncc(-c3cc(NC4CCCNCC4)ncc3Cl)n2)CCOCC1 (centres unmarked) [Compound 583]
Neutral species
  IC50: 11 nM

## C[C@@](O)(CN[C@H]1CC[C@H](Nc2cc(-c3cccc(NCC4(C#N)CCOCC4)n3)c(Cl)cn2)CC1)C(F)(F)F [Compound 577]
TFA salt
  IC50: 0.432 nM and 0.255 nM

## COC(C)(C)CN[C@H]1CC[C@H](Nc2cc(-c3cccc(NCC4(C#N)CCOCC4)n3)c(Cl)cn2)CC1 [Compound 529]
Neutral species
  IC50: 0.281 nM

## C[C@@](O)(CN[C@H]1CC[C@H](Nc2cc(-c3cccc(NCC4(C#N)CCOCC4)n3)ccn2)CC1)C(F)(F)F [Compound 580]
TFA salt
  IC50: 0.979 nM

## N#CC1(CNc2cccc(-c3cc(N[C@H]4CC[C@H](NCC(O)CF)CC4)ncc3Cl)n2)CCOCC1 (some centres unmarked) [Compound 535]
Neutral species
  IC50: 0.398 nM

## N#CC1(COc2cncc(-c3cc(N[C@H]4CC[C@H](N)CC4)ncc3F)n2)CCOCC1 [Compound 534]
TFA salt
  IC50: 0.471 nM

## [2H][C@](C)(COC)N[C@H]1CC[C@H](Nc2cc(-c3cccc(NCC4(C#N)CCOCC4)n3)c(Cl)cn2)CC1 [Compound 597]
Neutral species
  IC50: < 1 nM

## COC[C@@H](C)N[C@H]1CC[C@H](Nc2cc(-c3cncc(OCC4(C#N)CCOCC4)n3)c(Cl)cn2)CC1 [Compound 552]
TFA salt
  IC50: 0.842 nM and 1.05 nM and 0.384 nM
Neutral species
  IC50: 1.12 nM

## CC(C)(C)OCCN[C@H]1CC[C@H](Nc2cc(-c3cccc(NCC4(C#N)CCOCC4)n3)c(Cl)cn2)CC1 [Compound 515]
TFA salt
  IC50: 2.19 nM
Neutral species
  IC50: 0.217 nM

## N#CC1(COc2cncc(-c3cc(N[C@H]4CC[C@H](NC[C@H](O)C(F)(F)F)CC4)ncc3Cl)n2)CCOCC1 [Compound 574]
Neutral species
  IC50: 0.448 nM

## CC(C)(C)OCCN[C@H]1CC[C@H](Nc2cc(-c3cccc(NCC4(C#N)CCOCC4)n3)c(F)cn2)CC1 [Compound 527]
Neutral species
  IC50: 0.594 nM

## COC[C@@H](C)N[C@H]1CC[C@@H](Nc2cc(-c3cccc(NCC4(C#N)CCOCC4)n3)c(Cl)cn2)CC1 [Compound 601]
Neutral species
  IC50: 25 nM

## COC[C@H](C)N[C@H]1CC[C@@H](Nc2cc(-c3cccc(NCC4(C#N)CCOCC4)n3)c(Cl)cn2)CC1 [Compound 602]
Neutral species
  IC50: 8.1 nM

## COCC(C)NC[C@H]1CC[C@H](Nc2cc(-c3cccc(NCC4(C#N)CCOCC4)n3)c(Cl)cn2)CC1 (some centres unmarked) [Compound 526]
Neutral species
  IC50: 1.19 nM

## N#CC1(COc2cncc(-c3cc(N[C@H]4CC[C@H](N5CCCOCC5)CC4)ncc3Cl)n2)CCOCC1 [Compound 548]
Neutral species
  IC50: 1.01 nM

## CC(C)(O)CN[C@H]1CC[C@H](Nc2cc(-c3cccc(NCC4(C#N)CCOCC4)n3)c(Cl)cn2)CC1 [Compound 521]
Neutral species
  IC50: 0.475 nM
